Results as given in US9688596B2, “Synthesis and biological activity of 2-methylene analogs of calcitriol and related compounds” (Wisconsin Alumni Research Foundation, priority 2015, dated 2017).
Entries after “also recorded” stand apart in the source; their conditions may differ.

How the values were obtained:
[1] = tested on: human promyelocytic HL-60 cells; test: HL-60 differentiation (NBT reduction); type: cell-based; conditions: for HL-60 differentiation ED50 Ratio: average ratio of the 1α,25-(OH)2D3 ED50 to the ED50 for the analogue, 50% maturation, NBT reduction; for ability to elicit differentiation of HL-60 cells into monocytes (in words): comparator (2MD)
[2] = tested on: 24-hydroxylase (CYP-24) promoter; test: 24-hydroxylase transcription (luciferase reporter in rat osteosarcoma cells); type: cell-based; conditions: for 24OHase transcription ED50 Ratio: average ratio of the 1α,25-(OH)2D3 ED50 to the ED50 for the analogue, luciferase activity; for transcriptional potency (in words): compared with 1α,25-(OH)2D3 (1)
From the text: The activity of the synthesized vitamins in inducing transcription of vitamin D target gene was examined using the 24-hydroxylase (CYP-24) promoter.

[3] = earlier work; cited from earlier work
[4] = target: T1, full-length recombinant rat vitamin D receptor (Rattus norvegicus, UniProt P13053); test: Competitive binding to the vitamin D receptor; conditions: for VDR Binding Ki Ratio: average ratio of the 1α,25-(OH)2D3 Ki to the Ki for the analogue, radiolabeled 1α,25-(OH)2D3 at 1 nM, Kd 0.2 nM; for VDR binding ability (in words): comparator (1 or 3)
T1 sequence (P13053 1-423): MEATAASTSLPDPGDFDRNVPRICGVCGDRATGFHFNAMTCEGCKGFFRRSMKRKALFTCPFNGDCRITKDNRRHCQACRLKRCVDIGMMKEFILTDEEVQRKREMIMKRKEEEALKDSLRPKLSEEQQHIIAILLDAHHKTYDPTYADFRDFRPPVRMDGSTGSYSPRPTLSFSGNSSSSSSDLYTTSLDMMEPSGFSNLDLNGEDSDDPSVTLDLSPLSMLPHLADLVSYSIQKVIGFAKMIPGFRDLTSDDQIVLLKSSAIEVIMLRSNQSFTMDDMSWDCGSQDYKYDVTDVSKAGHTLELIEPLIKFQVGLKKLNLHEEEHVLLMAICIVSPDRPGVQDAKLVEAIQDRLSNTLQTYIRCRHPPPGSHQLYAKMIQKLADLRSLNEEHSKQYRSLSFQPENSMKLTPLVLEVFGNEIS
Method: In the first competitive binding assay, the affinity of vitamins to the full-length recombinant rat receptor was evaluated and compared to 1α,25-(OH)2D3 (1) and 2MD (3).
The Ki values are derived from the dose-response curves and represent the inhibition constant when radiolabeled 1α,25-(OH)2D3 is present at 1 nM and a Kd of 0.2 nM is used. The numbers shown in the Table are expressed as the average ratio of the 1α,25-(OH)2D3 Ki to the Ki for the analogue. ^bInduction of differentiation of HL-60 promyelocytes to monocytes by 1α,25-(OH)2D3 (1) and the synthesized vitamin D analogues. Differentiation state was determined by measuring the percentage of cells reducing nitro blue tetrazolium (NBT). The experiment was repeated in duplicate two times. […] The numbers shown in the Table are expressed as the average ratio of the 1α,25-(OH)2D3 ED50 to the ED50 for the analogue. ^cTranscriptional assay in rat osteosarcoma cells stably transfected with a 24-hydroxylase gene reporter plasmid. […] The numbers shown in the Table are expressed as the average ratio of the 1α,25-(OH)2D3 ED50 to the ED50 for the analogue.

[5] = compared with 1; cited from earlier work
[6] = cited from earlier work
bone formation = conditions: cited from earlier work
[7] = ovariectomized (OVX) rat; cited from earlier work
[8] = clinical trial; cited from earlier work
[9] = Bone calcium mobilization (serum calcium); type: in vivo, rat; conditions: rats, four consecutive intraperitoneal doses
Method: (§1) Male, weanling Sprague-Dawley rats were purchased from Harlan (Indianapolis, Ind.). The animals were group housed and placed on Diet 11 (0.47% Ca)+AEK oil for one week followed by Diet 11 (0.02% Ca)+AEK oil for 3 weeks. The rats were then switched to a diet containing 0.47% Ca^xxiii for one week followed by two weeks on a diet containing 0.02% Ca. Dose administration began during the last week on 0.02% Ca diet. Four consecutive intraperitoneal doses were given approximately 24 hours apart. Twenty four hours after the last dose, blood was collected from the severed neck and the concentration of serum calcium determined as a measure of bone calcium mobilization. The first 10 cm of the intestine was also collected for the intestinal calcium transport analysis using the everted gut sac method.^25

[10] = Intestinal calcium transport (everted gut sac); type: in vivo, rat; conditions: rats, four consecutive intraperitoneal doses
Method: as §1

[11] = listed as 2-methylene calcitriol

| Compound | 24OHase transcription ED50 Ratio [2] | VDR Binding Ki Ratio [4] | transcriptional potency (in words) [2] | VDR binding ability (in words) [4] | transcriptional activity decreased compared with 3 (2MD) ([2]; compared with 3) | affinity to the receptor, higher than natural hormone 1 ([4]; compared to 1α,25-(OH)2D3 (1)) [fold] | HL-60 differentiation ED50 Ratio [1] | calcemic potency / in vivo calcemic activity [3] | activity in the bone tissue higher than 1 [5] | activity in the intestine compared with 1 [6] | bone formation in vitro (bone formation) | bone formation in OVX rat model [7] | bone turnover in postmenopausal women [8] | bone calcium mobilization / potency in raising serum calcium (in words) [9] | bone calcium mobilization / potency in raising serum calcium (in words) [9, 11] | intestinal calcium transport activity (in words) [10] | intestinal calcium transport activity (in words) [10, 11] | ability to elicit differentiation of HL-60 cells into monocytes (in words) [1] |
| --- | --- | --- | --- | --- | --- | --- | --- | --- | --- | --- | --- | --- | --- | --- | --- | --- | --- | --- |
| C=C1[C@H](O)CC(=C/C=C2\CCC[C@]3(C)[C@@H]([C@H](C)CCCC(C)(C)O)CC[C@@H]23)C[C@H]1O [Compound 2, reference compound] | 1 | 1 | – | – | – | – | 1 | significantly increased calcemic potency | – | – | – | – | – | – | – | – | – | – |
| C=C1[C@H](O)CC(=C/C=C2\CCC[C@]3(C)[C@@H](C(C)CCCC(C)(C)O)CC[C@@H]23)C[C@H]1O (stereo partly drawn) [Compound 3, (20S)-1α,25-dihydroxy-2-methylene-19-nor vitamin D3] | 29 | 1 | – | – | – | – | 25 | – | ca. 30 times | similar | strongly stimulate bone formation | strongly stimulate bone formation | increase bone turnover | – | – | – | – | – |
| C=C1/C(=C\C=C2/CCC[C@]3(C)[C@@H]([C@H](C)CCCC(C)(C)O)CC[C@@H]23)C[C@@H](O)C(=C)[C@@H]1O [Compound 8, 1α,25-dihydroxy-2-methylene-vitamin D3] | 1 | 1.4 | same transcriptional potency as 1α,25-(OH)2D3 (1) | almost as effectively as the natural hormone 1 | – | – | 0.7 | – | – | – | – | – | – | highest potency in raising serum calcium; also recorded: considerably higher potency | almost as active as 2MD in the bone | Much higher potency on intestine; also recorded: considerably higher potency; also recorded: more potent than 1 and 3 | more active in intestine | – |
| C=C1/C(=C\C=C2/CCC[C@]3(C)[C@@H]([C@H](C)CCCC(C)C)CC[C@@H]23)C[C@@H](O)C(=C)[C@@H]1O [Compound 10, 1α-hydroxy-2-methylene-vitamin D3] | – | – | decreased by one order of magnitude | decreased by two orders of magnitude | – | – | 0.07 | – | – | – | – | – | – | less active but still more calcemic than calcitriol; also recorded: Strong calcemic activity | – | – | – | – |
| C=C1/C(=C\C=C2/CCC[C@]3(C)[C@@H]([C@@H](C)CCCC(C)C)CC[C@@H]23)C[C@@H](O)C(=C)[C@@H]1O [Compound 11, (20S)-1α-hydroxy-2-methylene-vitamin D3] | – | – | decreased by one order of magnitude | decreased by two orders of magnitude | – | – | 0.7 | – | – | – | – | – | – | less active but still more calcemic than calcitriol; also recorded: Strong calcemic activity | – | – | – | – |
| C=C1/C(=C/C=C2\CCC[C@]3(C)[C@@H]([C@H](C)CCCC(C)(C)O)CC[C@@H]23)C[C@@H](O)C(=C)[C@@H]1O [Compound 12, (5E)-1α,25-dihydroxy-2-methylene-vitamin D3] | 1 | 2.5 | same transcriptional potency as 1α,25-(OH)2D3 (1) | – | – | 2.5 | 0.4 | – | – | – | – | – | – | significantly decreased activity in bone | – | – | – | – |

Continued, in another order:

| 24OHase transcription ED50 Ratio [2] | VDR Binding Ki Ratio [4] | transcriptional potency (in words) [2] | VDR binding ability (in words) [4] | transcriptional activity decreased compared with 3 (2MD) ([2]; compared with 3) | affinity to the receptor, higher than natural hormone 1 ([4]; compared to 1α,25-(OH)2D3 (1)) [fold] | Compound | HL-60 differentiation ED50 Ratio [1] | calcemic potency / in vivo calcemic activity [3] | activity in the bone tissue higher than 1 [5] | activity in the intestine compared with 1 [6] | bone formation in vitro (bone formation) | bone formation in OVX rat model [7] | bone turnover in postmenopausal women [8] | bone calcium mobilization / potency in raising serum calcium (in words) [9] | bone calcium mobilization / potency in raising serum calcium (in words) [9, 11] | intestinal calcium transport activity (in words) [10] | intestinal calcium transport activity (in words) [10, 11] | ability to elicit differentiation of HL-60 cells into monocytes (in words) [1] |
| --- | --- | --- | --- | --- | --- | --- | --- | --- | --- | --- | --- | --- | --- | --- | --- | --- | --- | --- |
| 10 | 1.1 | most pronounced activity | almost identical | three | – | C=C1/C(=C\C=C2/CCC[C@]3(C)[C@@H]([C@@H](C)CCCC(C)(C)O)CC[C@@H]23)C[C@@H](O)C(=C)[C@@H]1O [Compound 9, (20S)-1α,25-dihydroxy-2-methylene-vitamin D3] | 29 | – | – | – | – | – | – | highest potency in raising serum calcium; also recorded: slightly lower than that of 3; also recorded: ca. one order of magnitude higher compared to calcitriol | – | Much higher potency on intestine; also recorded: more potent than 1 and 3 | – | highest ability to elicit cellular differentiation; also recorded: almost identical |
| 5 | 1.1 | most pronounced activity | almost identical | – | – | C=C1/C(=C/C=C2\CCC[C@]3(C)[C@@H]([C@@H](C)CCCC(C)(C)O)CC[C@@H]23)C[C@@H](O)C(=C)[C@@H]1O [Compound 13, (5E,20S)-1α,25-dihydroxy-2-methylene-vitamin D3] | 20 | – | – | – | – | – | – | significantly decreased activity in bone | – | – | – | highest ability to elicit cellular differentiation; also recorded: almost identical |
